Test results reported in ChEMBL document CHEMBL1201862, “PubChem BioAssay data set” (2004).
Calls of active or inactive are those of the source.

What was measured:
Estrogen receptor = biological target: T1, Estrogen receptor (Homo sapiens, UniProt P03372);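 note: potency for inhibiting coactivator peptide recruitment to the receptor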
T1 sequence (P03372 whole entry): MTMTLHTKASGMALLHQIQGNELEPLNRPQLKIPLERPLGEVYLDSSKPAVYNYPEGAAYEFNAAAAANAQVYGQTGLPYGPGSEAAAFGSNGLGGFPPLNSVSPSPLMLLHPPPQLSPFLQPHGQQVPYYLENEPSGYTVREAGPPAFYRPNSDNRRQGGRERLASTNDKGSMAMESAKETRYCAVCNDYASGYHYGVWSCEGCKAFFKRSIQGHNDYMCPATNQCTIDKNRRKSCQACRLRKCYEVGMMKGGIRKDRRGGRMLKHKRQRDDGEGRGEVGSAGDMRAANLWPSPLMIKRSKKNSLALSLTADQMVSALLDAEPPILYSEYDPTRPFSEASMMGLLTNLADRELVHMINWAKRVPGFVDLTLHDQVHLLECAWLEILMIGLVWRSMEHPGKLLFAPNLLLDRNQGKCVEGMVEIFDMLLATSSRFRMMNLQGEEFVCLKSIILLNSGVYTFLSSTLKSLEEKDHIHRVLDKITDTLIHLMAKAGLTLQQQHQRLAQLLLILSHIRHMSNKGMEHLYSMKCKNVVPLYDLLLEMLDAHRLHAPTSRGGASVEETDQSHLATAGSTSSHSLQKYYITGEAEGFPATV

[1] = Vero E6 cell cytotoxicity, dose response, cytotoxicity control for non-replicating M. tuberculosis project, secondary assay (AID 492998); format: functional, VeroE6; details: Vero C1008
cells [2] = format: functional
Melanocortin receptor 4 = Melanocortin receptor 4 (Homo sapiens, UniProt P32245); test: MC4R antagonist potency on cAMP, dose response, cell-based, TR-FRET, biased antagonists (AID 602298); format: functional;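 note: antagonist potency against agonist-stimulated cAMP production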
[3] = nonselective inhibitors of cellular cAMP signaling, dose response, counter-screen for MC4R biased antagonist project, cell-based, TR-FRET cAMP detection (AID 602305); format: functional;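 note: U2OS cells stimulated with forskolin near its EC80 as the cAMP inducer; potency is for inhibition of forskolin-stimulated cAMP signaling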
[4] = inhibitors of intracellular T. cruzi replication, confirmation, NIH3T3 host cells, beta-gal luminescence (AID 2044); format: functional, cell-based;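 note: intracellular parasites grown in NIH/3T3 mouse fibroblasts as host cells; luminescent beta-galactosidase reporter signal from transgenic T. cruzi replicating inside host cells; inhibitors lower the luminescence signal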
[5] = cytotoxicity toward NIH3T3 fibroblasts, dose response, counter-screen, cell-based, ATP luminescence, mouse fibroblasts (AID 2010); format: functional;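 note: cells exposed to compound for about 90 hours before reading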
cells [6] = test: cells
Tumor necrosis factor = Tumor necrosis factor (Homo sapiens, UniProt P01375); test: TNFa-triggered NF-kB activation inhibitors, SAR follow-up, cell-based, revised (AID 2337); format: functional
HEK293 [7] = test: cells; details: Homo sapiens
HEK293 [8] = test: inhibitors of LMP1-driven NF-kB reporter, dose response, cell-based, HEK293, luciferase, cherry-pick (AID 588343); format: functional; details: Homo sapiens
[9] = biological target: Melanin-concentrating hormone receptor 1 (Homo sapiens, UniProt Q99705); test: Late-stage fluorescence-based counterscreen for antagonists of the G-protein coupled receptor 7 (GPR7): cell-based dose response assay to identify antagonists of the melanin-concentrating hormone receptor 1 (MCHR1) Set 6.; format: functional
[10] = biological target: T2, Neuropeptides B/W receptor type 1 (Homo sapiens, UniProt P48145); test: GPR7 antagonist potency, late-stage follow-up, cell-based, fluorescence, dose response, set 6 (AID 588583); format: functional
T2 sequence (P48145 whole entry): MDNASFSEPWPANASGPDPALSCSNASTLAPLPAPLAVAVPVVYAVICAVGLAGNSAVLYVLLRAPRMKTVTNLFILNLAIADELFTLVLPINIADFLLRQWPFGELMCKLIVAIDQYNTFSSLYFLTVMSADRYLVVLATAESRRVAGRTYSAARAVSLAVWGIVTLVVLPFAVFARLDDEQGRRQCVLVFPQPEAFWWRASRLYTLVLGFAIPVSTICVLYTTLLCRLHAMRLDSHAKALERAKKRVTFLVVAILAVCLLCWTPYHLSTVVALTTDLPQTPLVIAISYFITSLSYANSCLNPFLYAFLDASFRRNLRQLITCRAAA

P388/ADR = test: cells; format: functional; details: Mus musculus
SN12K1 = test: cells; format: functional; details: Homo sapiens
P388 = test: cells; format: functional; details: Mus musculus
[11] = biological target: Luciferin 4-monooxygenase (Photinus pyralis, UniProt P08659); test: firefly luciferase enzyme inhibitors, dose response, biochemical, luminescence (AID 1891)
[12] = Luminescence Cell-Based Dose Confirmation HTS to Identify Inhibitors of Platelet Dense Granule Release. [Related pubchem assays: 1663 (Primary HTS), 1678 (Summary of Project)]; format: functional
HeLa = test: HeLa cell cytotoxicity, dose response, cytotoxicity control for MITF activator project, CellTiter-Glo luminescence, cherry-pick samples (AID 540259); format: functional, cell-based; details: Homo sapiens
Cytochrome P450 3A4 = Cytochrome P450 3A4 (Homo sapiens, UniProt P08684); details: Potency;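 note: confirmatory qHTS run detecting inhibitors and substrates of CYP3A4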
[13] = microbe, parasite or virus in culture; format: functional; details: Mycobacterium tuberculosis
[14] = biological target: T3, Ubiquitin-conjugating enzyme E2 N (Homo sapiens, UniProt P61088); format: functional;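 note: Dose-response confirmation in a TR-FRET assay detecting UBC13-driven polyubiquitin chain formation, inhibition measured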
T3 sequence (P61088 whole entry): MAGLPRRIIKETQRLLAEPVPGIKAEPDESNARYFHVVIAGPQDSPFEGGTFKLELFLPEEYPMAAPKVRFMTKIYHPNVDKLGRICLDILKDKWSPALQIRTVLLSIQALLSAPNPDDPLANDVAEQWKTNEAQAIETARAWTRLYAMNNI

Vero = test: cells; format: functional; details: Chlorocebus sabaeus

Chain of Cytochrome P450 3A4 (P08684 whole entry): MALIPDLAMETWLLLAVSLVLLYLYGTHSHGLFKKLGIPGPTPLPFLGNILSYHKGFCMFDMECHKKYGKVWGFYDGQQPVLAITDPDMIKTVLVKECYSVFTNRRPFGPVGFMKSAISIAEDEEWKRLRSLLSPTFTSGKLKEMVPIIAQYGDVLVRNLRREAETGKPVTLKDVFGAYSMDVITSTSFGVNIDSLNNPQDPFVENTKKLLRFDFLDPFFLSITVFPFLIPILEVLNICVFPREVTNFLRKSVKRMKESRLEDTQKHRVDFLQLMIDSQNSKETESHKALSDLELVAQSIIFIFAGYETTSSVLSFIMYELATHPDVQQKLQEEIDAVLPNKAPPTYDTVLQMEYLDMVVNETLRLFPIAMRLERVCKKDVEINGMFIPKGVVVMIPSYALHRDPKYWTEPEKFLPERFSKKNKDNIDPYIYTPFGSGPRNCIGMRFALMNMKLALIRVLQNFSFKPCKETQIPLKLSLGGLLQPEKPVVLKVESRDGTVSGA
Chain of Melanocortin receptor 4 (P32245 whole entry): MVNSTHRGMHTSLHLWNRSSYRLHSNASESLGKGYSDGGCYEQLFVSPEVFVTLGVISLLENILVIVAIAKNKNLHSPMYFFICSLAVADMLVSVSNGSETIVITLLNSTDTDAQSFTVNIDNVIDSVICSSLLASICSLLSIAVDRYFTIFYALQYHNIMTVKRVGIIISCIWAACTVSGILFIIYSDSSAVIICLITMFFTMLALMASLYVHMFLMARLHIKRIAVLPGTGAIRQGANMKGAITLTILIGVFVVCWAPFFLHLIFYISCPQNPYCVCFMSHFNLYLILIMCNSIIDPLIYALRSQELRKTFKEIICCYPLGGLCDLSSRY
Chain of Tumor necrosis factor (P01375 whole entry): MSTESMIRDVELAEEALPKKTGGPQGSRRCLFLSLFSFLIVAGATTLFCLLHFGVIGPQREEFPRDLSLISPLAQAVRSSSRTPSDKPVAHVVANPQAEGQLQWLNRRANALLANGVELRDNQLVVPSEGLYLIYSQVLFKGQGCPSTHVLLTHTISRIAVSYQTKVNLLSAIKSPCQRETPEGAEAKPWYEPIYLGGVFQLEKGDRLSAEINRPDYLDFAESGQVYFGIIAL
Chain of Luciferin 4-monooxygenase (P08659 whole entry): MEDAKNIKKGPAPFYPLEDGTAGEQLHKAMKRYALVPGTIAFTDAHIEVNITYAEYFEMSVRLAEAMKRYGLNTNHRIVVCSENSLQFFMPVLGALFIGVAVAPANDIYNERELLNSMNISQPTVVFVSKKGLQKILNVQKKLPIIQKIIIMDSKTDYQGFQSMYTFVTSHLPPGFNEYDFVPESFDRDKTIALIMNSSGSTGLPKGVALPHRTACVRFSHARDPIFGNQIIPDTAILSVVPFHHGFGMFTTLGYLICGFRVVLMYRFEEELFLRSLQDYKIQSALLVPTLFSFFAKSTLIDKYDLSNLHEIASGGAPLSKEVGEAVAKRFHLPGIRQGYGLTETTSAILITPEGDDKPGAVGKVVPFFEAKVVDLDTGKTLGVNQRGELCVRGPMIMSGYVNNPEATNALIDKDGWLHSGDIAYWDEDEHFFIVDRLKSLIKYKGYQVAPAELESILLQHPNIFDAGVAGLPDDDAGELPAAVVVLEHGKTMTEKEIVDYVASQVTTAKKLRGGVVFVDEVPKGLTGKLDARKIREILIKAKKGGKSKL
Chain of Melanin-concentrating hormone receptor 1 (Q99705 whole entry): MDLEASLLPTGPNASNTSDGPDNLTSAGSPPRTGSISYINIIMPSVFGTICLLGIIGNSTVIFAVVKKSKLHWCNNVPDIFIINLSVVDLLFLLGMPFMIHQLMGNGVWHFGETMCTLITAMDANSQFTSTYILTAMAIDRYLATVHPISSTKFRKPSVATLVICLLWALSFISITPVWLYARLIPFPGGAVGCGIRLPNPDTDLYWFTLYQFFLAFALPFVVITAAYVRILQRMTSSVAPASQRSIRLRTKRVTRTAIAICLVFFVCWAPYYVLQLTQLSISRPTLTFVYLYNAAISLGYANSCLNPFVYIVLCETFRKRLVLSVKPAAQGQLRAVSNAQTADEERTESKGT

SMILES: CSc1cccc(NC(=O)CN(c2ccccc2)S(=O)(=O)N(C)C)c1
- IC50 (Estrogen receptor): > 50 µM (not active)

SMILES: O=C(Nc1nnc(-c2ccco2)o1)c1cccc2ccccc12
- CC50 [1]: > 20 µM (active)
- IC50 (cells [2]): 4.54 µM (active)

SMILES: O=C(CNC(=O)c1ccc(Oc2ccccc2)cc1)OC1CCCCC1=O (centres undefined)
- IC50 (Melanocortin receptor 4): > 64.6 µM (inactive)
- IC50 [3]: > 64.6 µM (inactive)

SMILES: COc1ccccc1CN1CC(C(=O)NCCN(C)CCc2ccccc2)CCC1=O (centres undefined)
- EC50 [4]: < 0.1 µM (active)
- EC50 [5]: > 60 µM (not active)
- EC50 (cells [6]): 0.061 µM (active)

SMILES: N#Cc1ccc(N2CCN(S(=O)(=O)c3ccc4c(c3)CCN4C(=O)C3CC3)CC2)cc1
- IC50 (Tumor necrosis factor): 13.3 µM (active)
- IC50 (HEK293 [7]): > 20 µM (inactive)

SMILES: CCc1ccc(/C=C2\SC(=S)N(CCCC(=O)NC3=NCCS3)C2=O)cc1
- AC50 (HEK293 [8]): 1.85 µM (active)

SMILES: COc1ccc(C(C#N)c2c(Cl)cnn(Cc3cccc4ccccc34)c2=O)c(F)c1 (centres undefined)
- IC50 [9]: 0.198 µM (active)
- IC50 [10]: 0.198 µM (active)

SMILES: C=C1C(O)C2(O)OCC34C(CC5C(C)=CC(=O)C(O)C5(C)C23)OC(=O)C(OC(=O)C/C=C/CCCCCCCC)C14 (centres undefined)
- GI50 (P388/ADR): 0.0611 µM (active)
- GI50 (SN12K1): 0.02 µM (active)
- GI50 (P388): 0.02 µM (active)

SMILES: CC(C)(C)c1ccc2c(c1)OP1(Oc3cccc4cccnc34)(O2)Oc2ccc(C(C)(C)C)cc2O1
- GI50 (P388/ADR): 1.02 µM (active)
- GI50 (SN12K1): 4.24 µM (inactive)
- GI50 (P388): 0.689 µM (active)

SMILES: O=C(NC(Cc1ccc(I)cc1)C(=O)O)c1cccc(Br)c1 (centres undefined)
- GI50 (P388/ADR): 55.2 µM (inactive)
- GI50 (SN12K1): > 100 µM (inactive)
- GI50 (P388): 47.6 µM (inactive)

SMILES: CSc1nc(NC2OCC(O)C(O)C2O)c(N)c(=O)n1C (centres undefined)
- GI50 (P388/ADR): > 100 µM (inactive)
- GI50 (SN12K1): > 100 µM (inactive)
- GI50 (P388): > 100 µM (inactive)

SMILES: CC(C)CNC(=O)c1c(N)n(/N=C/c2ccccn2)c2nc3ccccc3nc12
- IC50 (Estrogen receptor): 15.9 µM (active)

SMILES: Cc1ccc(N(C)/N=C/c2ccc(Cl)cc2Cl)nn1
- EC50 [11]: > 112 µM (not active)
- EC50 [12]: > 112 µM (not active)
- AC50 (HeLa): 75.3 µM (active)

SMILES: CC(=O)C1=C(O)C=C2Oc3c(C(C)=O)c(O)c(C)c(O)c3[C@]2(C)C1=O [(-)-USNIC ACID]
- AC50 (Cytochrome P450 3A4): 31.6 µM (inconclusive)

SMILES: CC/C(=C(\c1ccc(O)cc1)c1ccc(OCCN(C)C)cc1)c1ccccc1 [AFIMOXIFENE]
- CC50 [13]: 16.6 µM (active)
- IC50 [14]: > 20 µM (inactive)
- CC50 (Vero): 19.4 µM (active)
- AC50 (Cytochrome P450 3A4): 25.1 µM (inconclusive)
